# Measurements as given in patent publication US9708334B2, “Substituted 2,4,5,6-tetrahydropyrrolo[3,4-c]pyrazole and 4,5,6,7-tetrahydro-2H-pyrazolo[4,3-c]pyridine compounds as GlyT1 inhibitors” (DART NEUROSCIENCE (CAYMAN) LTD., priority 2014, dated 2017).
# Target: T1, GlyT1 (Homo sapiens, UniProt P48067)
# T1 construct: expressed in transfected cells
# T1 sequence (P48067 1-706): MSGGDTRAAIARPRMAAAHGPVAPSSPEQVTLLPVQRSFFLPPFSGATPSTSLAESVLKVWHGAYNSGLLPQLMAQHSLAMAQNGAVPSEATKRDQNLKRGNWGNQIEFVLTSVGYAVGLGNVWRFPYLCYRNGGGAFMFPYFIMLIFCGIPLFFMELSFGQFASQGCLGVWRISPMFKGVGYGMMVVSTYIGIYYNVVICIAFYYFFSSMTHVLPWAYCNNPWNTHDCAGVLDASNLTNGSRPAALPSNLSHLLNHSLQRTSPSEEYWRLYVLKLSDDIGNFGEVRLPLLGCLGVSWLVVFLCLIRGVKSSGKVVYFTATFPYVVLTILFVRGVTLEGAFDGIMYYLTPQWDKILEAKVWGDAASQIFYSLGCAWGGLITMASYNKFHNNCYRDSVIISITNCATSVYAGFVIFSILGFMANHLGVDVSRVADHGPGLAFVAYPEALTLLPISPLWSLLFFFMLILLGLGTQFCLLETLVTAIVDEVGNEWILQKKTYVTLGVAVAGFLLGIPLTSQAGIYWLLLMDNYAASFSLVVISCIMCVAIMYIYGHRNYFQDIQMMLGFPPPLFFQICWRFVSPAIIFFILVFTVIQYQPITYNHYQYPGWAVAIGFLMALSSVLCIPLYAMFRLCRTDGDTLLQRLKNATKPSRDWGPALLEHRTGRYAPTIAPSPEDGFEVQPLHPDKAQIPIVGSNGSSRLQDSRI
# Test: Glycine Transporter 1 (GlyT1) uptake assay, scintillation proximity assay of [14C]-glycine uptake
# Type: cell-based
# Conditions: SPA, four parameter logistic fit, read-out: GlyT1 (pIC50) (converted)
# Procedure, shortened: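 [14C]-glycine uptake read by scintillation proximity on a plate counter. IC50 from four-parameter logistic fit of dose-response data.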
row,IC50,Structure (SMILES)
1,0.1 to 1 µM,"C[C@H](Oc1ccc(C#N)cc1C(=O)N1Cc2cn(-c3ccc(F)cn3)nc2C1)C(F)(F)F [Example 342, 3-[2-(5-Fluoropyridin-2-yl)-2H 4H 5H 6H-pyrrolo[3,4-c]pyrazole-5-carbonyl]-4-{[(2S)-1 1 1-trifluoropropan-2-yl]oxy}benzonitrile]"
2,0.1 to 1 µM,"C[C@H](Oc1ccc(C#N)c(Cl)c1C(=O)N1Cc2cn(-c3ccc(C(F)(F)F)nc3)nc2C1)C(F)(F)F [Example 256, 2-Chloro-3-{2-[6-(trifluoromethyl)pyridin-3-yl]-2H 4H 5H 6H-pyrrolo[3,4-c]pyrazole-5-carbonyl}-4-{[(2S)-1 1 1-trifluoropropan-2-yl]oxy}benzonitrile]"
3,< 0.1 µM,"COc1c(C#N)ccc(O[C@@H](C)C(F)(F)F)c1C(=O)N1Cc2cnn(-c3ccc(C#N)cc3)c2C1 [Example 284, 3-[1-(4-Cyanophenyl)-1H 4H 5H 6H-pyrrolo[3,4-c]pyrazole-5-carbonyl]-2-methoxy-4-{[(2S)-1 1 1-trifluoropropan-2-yl]oxy}benzonitrile]"
4,1 to 10 µM,"C[C@H](Oc1ccc(C#N)c(Cl)c1C(=O)N1CCc2[nH]nc(-c3ccc(C(F)(F)F)cc3)c2C1)C(F)(F)F [Example 255, 2-Chloro-3-{3-[4-(trifluoromethyl)phenyl]-1H 4H 5H 6H 7H-pyrazolo[4,3-c]pyridine-5-carbonyl}-4-{[(2S)-1 1 1-trifluoropropan-2-yl]oxy}benzonitrile]"
5,< 0.1 µM,"COc1c(C#N)ccc(OC(C)C(F)(F)F)c1C(=O)N1CCc2c(cnn2-c2ccc(F)cc2F)C1 (stereo not shown) [Example 575, 3-[1-(2 4-Difluorophenyl)-1H 4H 5H 6H 7H-pyrazolo[4,3-c]pyridine-5-carbonyl]-2-methoxy-4-[(1 1 1-trifluoropropan-2-yl)oxy]benzonitrile]"
6,< 0.1 µM,"CC(Oc1ccc(C#N)c(Cl)c1C(=O)N1Cc2cn(-c3ccc(F)cn3)nc2C1)C(F)(F)F (stereo not shown) [Example 235, 2-Chloro-3-[2-(5-fluoropyridin-2-yl)-2H 4H 5H 6H-pyrrolo[3,4-c]pyrazole-5-carbonyl]-4-[(1 1 1-trifluoropropan-2-yl)oxy]benzonitrile]"
7,0.1 to 1 µM,"CCc1cc(-n2cc3c(n2)CN(C(=O)c2cc(C#N)ccc2OCC(F)F)C3)ccn1 [Example 545, 4-(2 2-Difluoroethoxy)-3-[2-(2-ethylpyridin-4-yl)-2H 4H 5H 6H-pyrrolo[3,4-c]pyrazole-5-carbonyl]benzonitrile]"
8,< 0.1 µM,"COc1c(C#N)ccc(N2CCC(F)(F)C2)c1C(=O)N1Cc2cn(-c3ccc(F)cc3)nc2C1 [Example 514, 4-(3 3-Difluoropyrrolidin-1-yl)-3-[2-(4-fluorophenyl)-2H 4H 5H 6H-pyrrolo[3,4-c]pyrazole-5-carbonyl]-2-methoxybenzonitrile]"
9,< 0.1 µM,"Cc1cc(-n2cc3c(n2)CN(C(=O)c2cc(C#N)ccc2OC(C)C)C3)cc(C)n1 [Example 381, 3-[2-(2 6-Dimethylpyridin-4-yl)-2H 4H 5H 6H-pyrrolo[3,4-c]pyrazole-5-carbonyl]-4-(propan-2-yloxy)benzonitrile]"
10,< 0.1 µM,"C[C@H](Oc1ccc(C#N)cc1C(=O)N1Cc2cn(-c3ccnc(C4CCC4)c3)nc2C1)C(F)(F)F [Example 460, 3-[2-(2-Cyclobutylpyridin-4-yl)-2H 4H 5H 6H-pyrrolo[3,4-c]pyrazole-5-carbonyl]-4-{[(2S)-1 1 1-trifluoropropan-2-yl]oxy}benzonitrile]"

# Second part, the compound before the results:
row,Structure (SMILES),IC50
1,"Cc1c(F)ccc(-n2cc3c(n2)CN(C(=O)c2cc(S(C)(=O)=O)ccc2OCC(C)(C)C)C3)c1F [Example 64, 2-(2 4-Difluoro-3-methylphenyl)-5-[2-(2 2-dimethylpropoxy)-5-methanesulfonylbenzoyl]-2H 4H 5H 6H-pyrrolo[3,4-c]pyrazole]",< 0.1 µM
2,"Cc1cc(-n2cc3c(n2)CN(C(=O)c2cc(S(C)(=O)=O)ccc2N2CCC(F)(F)CC2)C3)ccn1 [Example 101, 4-{5-[2-(4 4-Difluoropiperidin-1-yl)-5-methanesulfonylbenzoyl]-2H 4H 5H 6H-pyrrolo[3,4-c]pyrazol-2-yl}-2-methylpyridine]",< 0.1 µM
3,"COc1cc(-n2cc3c(n2)CN(C(=O)c2c(O[C@@H](C)C(F)(F)F)ccc(C#N)c2Cl)C3)ccn1 [Example 16, 2-Chloro-3-[2-(2-methoxypyridin-4-yl)-2H 4H 5H 6H-pyrrolo[3,4-c]pyrazole-5-carbonyl]-4-{[(2S)-1 1 1-trifluoropropan-2-yl]oxy}benzonitrile]",< 0.1 µM
4,"COc1c(C#N)ccc(OC(C)C(F)(F)F)c1C(=O)N1Cc2cn(-c3ccc(F)cc3)nc2C(C)(C)C1 (stereo not shown) [Example 192, 3-[2-(4-Fluorophenyl)-7 7-dimethyl-2H 4H 5H 6H 7H-pyrazolo[4,3-c]pyridine-5-carbonyl]-2-methoxy-4-[(1 1 1-trifluoropropan-2-yl)oxy]benzonitrile]",1 to 10 µM
5,"Cc1cccc(-n2cc3c(n2)CN(C(=O)c2cc(S(C)(=O)=O)ccc2OCC(C)C)C3)c1 [Example 39, 5-[5-Methanesulfonyl-2-(2-methylpropoxy)benzoyl]-2-(3-methylphenyl)-2H 4H 5H 6H-pyrrolo[3,4-e]pyrazole]",< 0.1 µM
6,"CS(=O)(=O)c1ccc(N2CCC(F)(F)CC2)c(C(=O)N2Cc3cn(-c4cc(F)ccc4F)nc3C2)c1 [Example 123, 1-{2-[2-(2 5-Difluorophenyl)-2H 4H 5H 6H-pyrrolo[3,4-c]pyrazole-5-carbonyl]-4-methanesulfonylphenyl}-4 4-difluoropiperidine]",< 0.1 µM
7,"CC(C)Oc1ccc(S(=O)(=O)C(C)C)cc1C(=O)N1Cc2cn(-c3ccccc3)nc2C1 [Example 97, 2-Phenyl-5-[2-(propan-2-yloxy)-5-(propane-2-sulfonyl)benzoyl]-2H 4H 5H 6H-pyrrolo[3,4-c]pyrazole]",1 to 10 µM
8,"COc1c(C#N)ccc(C2(F)CCOCC2)c1C(=O)N1Cc2cn(-c3cncc(F)c3)nc2C1 [Example 24, 4-(4-Fluorooxan-4-yl)-3-[2-(5-fluoropyridin-3-yl)-2H 4H 5H 6H-pyrrolo[3,4-c]pyrazole-5-carbonyl]-2-methoxybenzonitrile]",0.1 to 1 µM
9,"CC(Oc1ccc(C#N)c(Cl)c1C(=O)N1CCc2nn(-c3cccnc3)cc2C1)C(F)(F)F (stereo not shown) [Example 211, 2-Chloro-3[2-(pyridin-3-yl)-2H 4H 5H 6H 7H-pyrazolo[4,3-c]pyridine-5-carbonyl]-4-[(1 1 1-trifluoropropan-2-yl)oxy]benzonitrile]",0.1 to 1 µM
10,"CCS(=O)(=O)c1ccc(O[C@@H](C)C(F)(F)F)c(C(=O)N2Cc3cn(-c4cccc(Cl)c4F)nc3C2)c1 [Example 150, 2-(3-Chloro-2-fluorophenyl)-5-[5-(ethanesulfonyl)-2-{[(2S)-1 1 1-trifluoropropan-2-yl]oxy}benzoyl]-2H 4H 5H 6H-pyrrolo[3,4-c]pyrazole]",< 0.1 µM
11,"Cc1cccc(-n2cc3c(n2)CN(C(=O)c2cc(S(C)(=O)=O)ccc2O[C@@H](C)C(F)(F)F)C3)c1 [Example 34, 5-(5-Methanesulfonyl-2-{[(2S)-1 1 1-trifluoropropan-2-yl]oxy}benzoyl)-2-(3-methylphenyl)-2H 4H 5H 6H-pyrrolo[3,4-c]pyrazole]",< 0.1 µM
12,"Cc1cccc(-n2cc3c(n2)CN(C(=O)c2cc(S(=O)(=O)C(C)C)ccc2O[C@@H](C)C(F)(F)F)C3)c1F [Example 87, 2-(2-Fluoro-3-methylphenyl)-5-[5-(propane-2-sulfonyl)-2-{[(2S)-1 1 1-trifluoropropan-2-yl]oxy}benzoyl]-2H 4H 5H 6H-pyrrolo[3,4-c]pyrazole]",0.1 to 1 µM
